Measurements published in patent US4371537A, “Sulfur-substituted phenoxypyridines having antiviral activity” (The Dow Chemical Company, priority 1981, dated 1983).
Values after ≈ are worked out from the molar mass of the structure shown.

Assays:
[1] = Cytotoxicity in tissue culture testing (HeLa monolayers); format: cell-based; conditions: human; HeLa cells; observed at 48 and 72 hours post-treatment; read-out: Cytotoxicity: concentration of the compound found to be toxic to the cell
Procedure, shortened: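 Compound in Eagle's medium plus fetal calf serum was applied to monolayered HeLa cells; cultures were then infected with RV-1A, RV-2 or Coxsackie A21, with RV-5, RV-8 or RV-64 for some compounds. Controls received no compound or no virus.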

[2] = tested on: rhinovirus type 1A (RV-1A); assay: Tissue culture testing, rhinovirus type 1A in HeLa cells; format: cell-based; conditions: Enterovirus, 48 and 72 hours, NA = not active at the standard test conditions, read-out: RV-1A: lowest concentration of the compound necessary to cause a 50 percent reduction in cytopathic effect
Procedure, shortened: (§1)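 HeLa monolayers pretreated with compound in Eagle's medium with fetal calf serum, then challenged with virus; uninfected cell controls included. Value reported is the lowest compound concentration (μg/ml) needed for the effect.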

rhinovirus type 2 (RV-2) = assay: Tissue culture testing, rhinovirus type 2 in HeLa cells; format: cell-based; conditions: Enterovirus, 48 and 72 hours, NA = not active at the standard test conditions, read-out: RV-2: lowest concentration of the compound necessary to cause a 50 percent reduction in cytopathic effect
Procedure, shortened: as §1

[3] = tested on: Coxsackie A21 virus (Cox A21); assay: Tissue culture testing, Coxsackie A21 virus in HeLa cells; format: cell-based; conditions: 48 and 72 hours, NA = not active at the standard test conditions, read-out: Cox A21: lowest concentration of the compound necessary to cause a 50 percent reduction in cytopathic effect
Procedure, shortened: as §1

rhinovirus type 5 (RV-5) = assay: Tissue culture testing, rhinovirus type 5 in HeLa cells; format: cell-based; conditions: Enterovirus, 48 and 72 hours, NA = not active at the standard test conditions, read-out: RV-5: lowest concentration of the compound necessary to cause a 50 percent reduction in cytopathic effect
Description: (§2) Monolayered HeLa cells in 16 millimeter (mm) tissue culture dishes were treated with 1 ml of culture medium (Eagles medium supplemented with fetal calf serum) containing subject compound at an appropriate concentration or containing no compound at all. Culture media such as those described herein are more fully described in standard texts, as for example, Kuchler's Biochemical Methods in Cell Culture and Virology, Dowden, Hutchinson and Ross, Inc., Stroudsberg, PA (1977). Following treatment, cells were challenged with 0.05 ml of rhinovirus type 1A (RV-1A), rhinovirus type 2 (RV-2) or Coxsackie A21 virus (Cox A21) in culture medium. Some of the compounds were also tested against rhinovirus type 5 (RV-5), rhinovirus type 8 (RV-8) or rhinovirus type 64 (RV-64). Cell controls received no viruses.
(§3) ^2 Lowest concentration of the compound (μg/ml) necessary to cause

rhinovirus type 8 (RV-8) = assay: Tissue culture testing, rhinovirus type 8 in HeLa cells; format: cell-based; conditions: Enterovirus, 48 and 72 hours, NA = not active at the standard test conditions, read-out: RV-8: lowest concentration of the compound necessary to cause a 50 percent reduction in cytopathic effect
Description: as §2, §3

Cox A21 = assay: Single Oral Dose test in mice challenged IP with Cox A21; format: in vivo, Swiss male mice; conditions: 600 mg/kg P.O. 3 h after IP challenge; >3.84 significant (95% confidence level)
Procedure, shortened: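 A single P.O. treatment with compound suspended in 0.5% hydroxypropyl methylcellulose was given 3 h after intraperitoneal Cox A21 challenge at a normally lethal dose in 8-12 g male Swiss mice. Survival followed 7-10 days; significance versus vehicle-treated infected mice by modified Mantel-Haenzel chi-square (>3.84, 95% level).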

Hanks Untyped = assay: Inhibition of cytopathic effect in WI-38 cell culture tubes, Hanks Untyped; format: cell-based, rhinovirus; conditions: Enterovirus; 25 μg/ml; WI-38 cells; read-out: Inhibition grade, Hanks Untyped
Description: (§4) The test compound was dissolved in an appropriate solvent (generally dimethyl sulfoxide) and incubated at 56° C. for at least 15 minutes and this solution was then used to prepare various test solutions having the desired concentration of test compound in preheated WI maintenance medium (49% Eagles, 49% medium 199, 2% fetal calf serum and antibiotics).
(§5) Triplicate cell culture tubes (WI-38 human embryonic lung cell culture tubes) were fed with 1 ml of medium containing the compound at specified concentrations and inoculated with 3-300 TCID50 (3-300 times the tissue culture infective dose 50, i.e., the dose required to infect 50% of the cell cultures tested). Simultaneous viral titrations were performed. The tissue cultures were supplemented with fresh medium when necessary (around 3-4 days) until viral titrations were completed.
(§6) The cell culture tubes were examined dialy for cytopathic effect. […] Comparisons were made at that time with the percentage of cell sheet destruction in tubes containing virus compound mixtures. Observed differences of 75% or more were graded "+", 74-50% as "±", and less than 50% as "-" inhibition.

Rhinovirus Type 4 = assay: Inhibition of cytopathic effect in WI-38 cell culture tubes, rhinovirus type 4; format: cell-based; conditions: Enterovirus; 25 μg/ml; WI-38 cells; read-out: Inhibition grade, Rhinovirus Type 4
Description: as §4, §5, §6

Rhinovirus Type 6 = assay: Inhibition of cytopathic effect in WI-38 cell culture tubes, rhinovirus type 6; format: cell-based; conditions: Enterovirus; 25 μg/ml; WI-38 cells; read-out: Inhibition grade, Rhinovirus Type 6
Description: as §4, §5, §6

Rhinovirus Type 8 = assay: Inhibition of cytopathic effect in WI-38 cell culture tubes, rhinovirus type 8; format: cell-based; conditions: Enterovirus; 25 μg/ml; WI-38 cells; read-out: Inhibition grade, Rhinovirus Type 8
Description: as §4, §5, §6

Rhinovirus Type 10 = assay: Inhibition of cytopathic effect in WI-38 cell culture tubes, rhinovirus type 10; format: cell-based; conditions: Enterovirus; 25 μg/ml; WI-38 cells; read-out: Inhibition grade, Rhinovirus Type 10
Description: as §4, §5, §6

Rhinovirus Type 13 = assay: Inhibition of cytopathic effect in WI-38 cell culture tubes, rhinovirus type 13; format: cell-based; conditions: Enterovirus; 25 μg/ml; WI-38 cells; read-out: Inhibition grade, Rhinovirus Type 13
Description: as §4, §5, §6

Rhinovirus Type 17 = assay: Inhibition of cytopathic effect in WI-38 cell culture tubes, rhinovirus type 17; format: cell-based; conditions: Enterovirus; 25 μg/ml; WI-38 cells; read-out: Inhibition grade, Rhinovirus Type 17
Description: as §4, §5, §6

Rhinovirus Type 19 = assay: Inhibition of cytopathic effect in WI-38 cell culture tubes, rhinovirus type 19; format: cell-based; conditions: Enterovirus; 25 μg/ml; WI-38 cells; read-out: Inhibition grade, Rhinovirus Type 19
Description: as §4, §5, §6

Rhinovirus Type 21 = assay: Inhibition of cytopathic effect in WI-38 cell culture tubes, rhinovirus type 21; format: cell-based; conditions: Enterovirus; 25 μg/ml; WI-38 cells; read-out: Inhibition grade, Rhinovirus Type 21
Description: as §4, §5, §6

Rhinovirus Type 29 = assay: Inhibition of cytopathic effect in WI-38 cell culture tubes, rhinovirus type 29; format: cell-based; conditions: Enterovirus; 25 μg/ml; WI-38 cells; read-out: Inhibition grade, Rhinovirus Type 29
Description: as §4, §5, §6

Rhinovirus Type 39 = assay: Inhibition of cytopathic effect in WI-38 cell culture tubes, rhinovirus type 39; format: cell-based; conditions: Enterovirus; 25 μg/ml; WI-38 cells; read-out: Inhibition grade, Rhinovirus Type 39
Description: as §4, §5, §6

Rhinovirus Type 56 = assay: Inhibition of cytopathic effect in WI-38 cell culture tubes, rhinovirus type 56; format: cell-based; conditions: Enterovirus; 25 μg/ml; WI-38 cells; read-out: Inhibition grade, Rhinovirus Type 56
Description: as §4, §5, §6

Rhinovirus Type 58 = assay: Inhibition of cytopathic effect in WI-38 cell culture tubes, rhinovirus type 58; format: cell-based; conditions: Enterovirus; 25 μg/ml; WI-38 cells; read-out: Inhibition grade, Rhinovirus Type 58
Description: as §4, §5, §6

Rhinovirus Type 59 = assay: Inhibition of cytopathic effect in WI-38 cell culture tubes, rhinovirus type 59; format: cell-based; conditions: Enterovirus; 25 μg/ml; WI-38 cells; read-out: Inhibition grade, Rhinovirus Type 59
Description: as §4, §5, §6

Rhinovirus Type 60 = assay: Inhibition of cytopathic effect in WI-38 cell culture tubes, rhinovirus type 60; format: cell-based; conditions: Enterovirus; 25 μg/ml; WI-38 cells; read-out: Inhibition grade, Rhinovirus Type 60
Description: as §4, §5, §6

Rhinovirus Type 64 = assay: Inhibition of cytopathic effect in WI-38 cell culture tubes, rhinovirus type 64; format: cell-based; conditions: Enterovirus; 25 μg/ml; WI-38 cells; read-out: Inhibition grade, Rhinovirus Type 64
Description: as §4, §5, §6

Rhinovirus Type 68 = assay: Inhibition of cytopathic effect in WI-38 cell culture tubes, rhinovirus type 68; format: cell-based; conditions: Enterovirus; 25 μg/ml; WI-38 cells; read-out: Inhibition grade, Rhinovirus Type 68
Description: as §4, §5, §6

Rhinovirus Type 74 = assay: Inhibition of cytopathic effect in WI-38 cell culture tubes, rhinovirus type 74; format: cell-based; conditions: Enterovirus; 25 μg/ml; WI-38 cells; read-out: Inhibition grade, Rhinovirus Type 74
Description: as §4, §5, §6

Rhinovirus Type 75 = assay: Inhibition of cytopathic effect in WI-38 cell culture tubes, rhinovirus type 75; format: cell-based; conditions: Enterovirus; 25 μg/ml; WI-38 cells; read-out: Inhibition grade, Rhinovirus Type 75
Description: as §4, §5, §6

Rhinovirus Type 81 = assay: Inhibition of cytopathic effect in WI-38 cell culture tubes, rhinovirus type 81; format: cell-based; conditions: Enterovirus; 25 μg/ml; WI-38 cells; read-out: Inhibition grade, Rhinovirus Type 81
Description: as §4, §5, §6

RV-1A, RV-2 or Cox A21 = assay: Summary of HeLa tissue culture testing against the test viruses; format: cell-based, rhinovirus types 1A and 2, Coxsackie A21 virus; conditions: for antiviral activity in tissue culture: active on RV-1A and RV-2 at a test concentration equivalent to the cytotoxic concentration
Description: as §2

Coxsackie A21 virus = assay: Continuous Oral Feeding test in mice challenged IP with Coxsackie A21 virus; format: in vivo; conditions: po, 0.06 % in diet, 240 h
Procedure, shortened: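 Activity judged by chi-square on 10-day deaths versus untreated controls, with values above 3.84 counted active at 95% confidence. The IP challenge (0.2 ml/mouse, HeLa-grown virus, 80 to 100% lethal in 8 to 12 g mice) came on day 1, after diet containing 0.06% (weight percent) compound began on day 0.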

## CS(=O)(=O)c1ccc(Oc2ccc(Cl)c(Cl)c2)nc1 [Example 40, 2-(3,4-dichlorophenoxy)-5-(methylsulfonyl)pyridine]
[1]
  MCC: 50 µg/mL
[2]
  EC50: ≤ 0.31 µg/mL
Rhinovirus type 2 (RV-2)
  EC50: 0.625 µg/mL (≈ 1.96 µM)
[3]
  EC50: ≤ 6.25 µg/mL
Rhinovirus type 5 (RV-5)
  EC50: 25 µg/mL (≈ 78.6 µM)
Rhinovirus type 8 (RV-8)
  EC50: ~12.5 µg/mL (≈ 39.3 µM)
Cox A21
  Single Oral Dose X^2 (chi-square, deaths vs virus control): 22.807
Hanks Untyped
  inhibition at 25 µg/mL: ≥ 75%
Rhinovirus Type 4
  inhibition at 25 µg/mL: < 50%
Rhinovirus Type 6
  inhibition at 25 µg/mL: < 50%
Rhinovirus Type 8
  inhibition at 25 µg/mL: < 50%
Rhinovirus Type 10
  inhibition at 25 µg/mL: ≥ 75%
Rhinovirus Type 13
  inhibition at 25 µg/mL: ≥ 75%
Rhinovirus Type 17
  inhibition at 25 µg/mL: ≥ 75%
Rhinovirus Type 19
  inhibition at 25 µg/mL: ≥ 75%
Rhinovirus Type 21
  inhibition at 25 µg/mL: ≥ 75%
Rhinovirus Type 29
  inhibition at 25 µg/mL: ≥ 75%
Rhinovirus Type 39
  inhibition at 25 µg/mL: ≥ 75%
Rhinovirus Type 56
  inhibition at 25 µg/mL: ≥ 75%
Rhinovirus Type 58
  inhibition at 25 µg/mL: ≥ 75%
Rhinovirus Type 59
  inhibition at 25 µg/mL: 50 to 74%
Rhinovirus Type 60
  inhibition at 25 µg/mL: 50 to 74%
Rhinovirus Type 64
  inhibition at 25 µg/mL: ≥ 75%
Rhinovirus Type 68
  inhibition at 25 µg/mL: ≥ 75%
Rhinovirus Type 74
  inhibition at 25 µg/mL: ≥ 75%
Rhinovirus Type 75
  inhibition at 25 µg/mL: < 50%
Rhinovirus Type 81
  inhibition at 25 µg/mL: ≥ 75%

## CS(=O)(=O)c1cccc(Oc2ccc(Br)cc2)n1 [2-(4-bromophenoxy)-6-(methylsulfonyl)pyridine]
RV-1A, RV-2 or Cox A21
  antiviral activity in tissue culture: only marginally active

## CCS(=O)(=O)c1cccnc1Oc1ccc(C(=O)c2ccccc2)cc1 [Example 74]
[1]
  MCC: 50 µg/mL
[2]
  EC50: 50 µg/mL (≈ 136 µM)
Rhinovirus type 2 (RV-2)
  EC50: ~50 µg/mL (≈ 136 µM)
RV-1A, RV-2 or Cox A21
  antiviral activity in tissue culture: only marginally active

## CCS(=O)(=O)c1cccnc1Oc1ccc(Cl)c(Cl)c1 [2-(3,4-dichlorophenoxy)-3-(ethylsulfonyl)pyridine]
RV-1A, RV-2 or Cox A21
  antiviral activity in tissue culture: only marginally active

## CC(C)S(=O)(=O)c1ccc(Oc2ccc(C(=O)c3ccccc3)cc2)nc1 [Example 51]
[1]
  MCC: 4 µg/mL
[2]
  EC50: 4 µg/mL (≈ 10.5 µM)
Rhinovirus type 2 (RV-2)
  EC50: 2 µg/mL (≈ 5.24 µM)
Cox A21
  Single Oral Dose X^2 (chi-square, deaths vs virus control): 3.085
Coxsackie A21 virus
  Continuous Oral Feeding X^2 (chi-square, deaths vs control): 17.705
RV-1A, RV-2 or Cox A21; initial test
  antiviral activity in initial tissue culture testing: did not show activity against the test viruses
RV-1A, RV-2 or Cox A21; retest (data in Table 3), RV-1A and RV-2
  antiviral activity on retest: did show activity against RV-1A and RV-2
